According to PubChem BioAssay (NCI):
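Five compound concentrations were applied to cells in 96-well plates for 48 hours; endpoints were derived by simple linear interpolation of the resulting dose-response curve. TGI is the concentration that stops growth completely.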

Experiments:
Test in all cases: growth of human tumour cells (NCI), 48 h
HS 578T breast = tested on: HS 578T breast
SN12C renal = tested on: SN12C renal
UO-31 renal = tested on: UO-31 renal
PC-3 prostate = tested on: PC-3 prostate
SF-539 CNS = tested on: SF-539 CNS
NCI-H522 lung = tested on: NCI-H522 lung
SK-MEL-5 melanoma = tested on: SK-MEL-5 melanoma
MDA-MB-435 = tested on: MDA-MB-435
SK-OV-3 ovarian = tested on: SK-OV-3 ovarian
NCI-H23 lung = tested on: NCI-H23 lung

Compound | TGI (HS 578T breast) [µM] | TGI (SN12C renal) [µM] | TGI (UO-31 renal) [µM] | TGI (PC-3 prostate) [µM] | TGI (SF-539 CNS) [µM] | TGI (NCI-H522 lung) [µM] | TGI (SK-MEL-5 melanoma) [µM] | TGI (MDA-MB-435) [µM] | TGI (SK-OV-3 ovarian) [µM] | TGI (NCI-H23 lung) [µM]
Cc1ccccc1C(=O)N1CCc2c([nH]c3ccccc23)C1 | 84.8 | 34.1 | > 100 | 33.9 | 48.4 | 46.1 | 29.6 | 37.3 | > 100 | 50.9
COc1ccc(C2CC(c3c(O)ccc4ccccc34)=NN2C(C)=O)cc1OC (stereo not given) | > 100 | > 100 | 83.3 | > 100 | 48.9 | > 100 | 71.8 | 69.2 | > 100 | 79
COC(=O)c1ccccc1CC1Cc2ccc3c(c2C1=O)CCCC3 (stereo not given) | > 100 | > 100 | > 100 | > 100 | > 100 | > 100 | 34.8 | > 100 | > 100 | > 100
CC[C@@H]1CC[C@@H]2[C@H](CC[C@]3(C)[C@@H](OC(C)=O)CC[C@@H]23)[C@H]1COC(C)=O | > 100 | 60.9 | > 100 | > 100 | 67.9 | 56.1 | 32.7 | 50.2 | > 100 | 79.1
CCCN(C(=O)c1ccccc1)C(C#N)c1ccc(C(C#N)N(CCC)C(=O)c2ccccc2)cc1 (stereo not given) | 86.7 | > 100 | > 100 | > 100 | 87.6 | > 100 | > 100 | > 100 | > 100 | > 100
CCCCCCc1cc2cc(-c3csc(CC#N)n3)c(=O)oc2cc1O | > 100 | > 100 | > 78.6 | > 100 | > 64.5 | > 100 | > 100 | > 100 | 97.6 | > 100
O=[N+]([O-])c1ccc2c(c1)c(OCc1ccccc1)nn2Cc1ccccc1 | > 100 | > 100 | > 100 | > 100 | > 100 | > 100 | > 100 | > 100 | > 100 | > 100
CC1(C)N=[N+]([O-])C1(C)C | > 100 | > 100 | > 100 | > 100 | > 100 | > 100 | > 100 | > 100 | > 100 | > 100
Cc1ccc(N=NC(=Nc2ccccc2)c2ccc(N(CCC#N)CCC#N)cc2)cc1 | > 100 | > 100 | > 100 | 59.9 | > 100 | 45.2 | 47 | > 100 | > 100 | 43.9
CCOC(=O)C1(C/C=C/CBr)Cc2ccccc2C1=O (stereo not given) | 24.4 | 6.41 | 4.83 | 19.2 | 3.39 | 3.11 | 7.66 | 3.19 | 21.5 | 4.47
CCCCCCCCCCCCCCNC(=O)CCC(NC(=O)c1ccc(N(C)Cc2cnc3nc(N)nc(N)c3n2)cc1)C(=O)NCCCCCCCCCCCCCC (stereo not given) | 29.1 | 33.8 | 53.6 | 22.5 | 16.3 | 32.4 | > 81.7 | 25.6 | 28.3 | 20.8
COC(=O)C([C@H](NC1(c2ccccc2)c2ccccc2-c2ccccc21)C(=O)OC)N(NC(=O)OCc1ccccc1)C(=O)OCc1ccccc1 (mixture of isomers) | > 100 | > 100 | > 100 | > 100 | > 100 | > 100 | > 100 | > 100 | > 100 | > 100
N#Cc1c(N2CCCC2)ncn(-c2ccccc2)c1=O | > 100 | > 100 | > 100 | > 100 | > 100 | > 100 | > 100 | > 100 | > 100 | > 100
C=CC1(C)CCC2C(=CCC3C2(C)CC(O)C(O)C3(C)COC2OC(C(=O)O)C(O)C(O)C2O)C1 (stereo not given) (tested in a mixture with another compound) | > 100 | > 100 | > 100 | > 100 | > 100 | > 100 | > 100 | > 100 | > 100 | > 100
COC(=O)C1SC(SC)=NC12c1ccccc1Nc1ccccc12 (stereo not given) | > 100 | > 100 | > 100 | 87 | 35.4 | 49.3 | 31 | 67.8 | > 100 | 38.9
COCO[C@@H]1C[C@H]2C(=O)Nc3ccccc3C(=O)N2C1 | > 100 | > 100 | 74.5 | > 100 | > 100 | 37.5 | > 100 | > 100 | > 100 | > 100
[N-]=[N+]=NC[C@H]1OCO[C@H](CN=[N+]=[N-])[C@@H](OCCOCCCl)[C@@H]1OCCOCCCl | > 100 | > 100 | 57.2 | > 100 | > 100 | > 100 | > 100 | > 100 | > 100 | > 100
C=CCN1C[C@H](C)N([C@H](c2ccc(C(=O)NC(CC)CC)cc2)c2cccc(OC)c2)C[C@H]1C | > 100 | > 100 | 52.7 | > 100 | 43.4 | 34.7 | 32.4 | > 100 | > 100 | > 100
CC(C)(C)N1CSC(=S)N(Cc2ccco2)C1 | 26.1 | 16.7 | 6.14 | 13.7 | 2.62 | 12 | 14 | 13.4 | 18.9 | 11.1
CN1CCc2cc(N)cc3c2C1Cc1ccc(O)c(O)c1-3 (stereo not given) | > 100 | > 100 | 95.9 | > 100 | > 100 | > 100 | 46.5 | > 100 | > 100 | > 100
Cc1nc2n(c1/C=C1/C(=O)Nc3cccc(Cl)c31)CCS2 | 53.9 | > 100 | > 100 | > 100 | 35.2 | > 100 | > 100 | > 100 | 35.1 | > 100
COc1cc2nc3n(c(=O)c2cc1OC)-c1ccc([N+](=O)[O-])cc1C3=O | > 100 | > 100 | 35 | > 100 | > 100 | > 100 | > 100 | 40.1 | > 100 | > 100
